Test results published in patent EP2908837B1, “COMPOSITIONS FOR DRUG DELIVERY” (priority 2012, dated 2014).
Non-standard residues stand in square brackets, D forms with d. Residues, ends and D or L forms follow the SMILES beside them.

Assay: In vitro plasma stability (half-life) in freshly collected mouse blood, LC-MS/MS
Assay type: in vitro ADME
Conditions: up to 8 hours at 37°C in Swiss (CD-I) mouse blood, analyte quantified in the plasma fraction
Procedure: In vitro plasma stability (i.e. half-life or t1/2) of the peptides of the invention was also assessed. Briefly, each peptide was incubated up to 8 hours at 37°C in freshly collected Swiss (CD-I) mouse blood and the analyte was quantified in the plasma fraction at several time-points using a liquid chromatography-tandem mass spectrometry (LC-MS/MS) analytical method. […]

Row | Structure (SMILES) | half-life
1 | CSCC[C@@H]1NC(=O)[C@H](N)CSSC(C)(C)[C@@H](C(=O)O)NC(=O)CNC(=O)[C@H](CCCNC(=N)N)NC(=O)[C@H](CC(C)C)NC(=O)[C@H](CCCNC(=N)N)NC(=O)[C@@H]2CSCN2C1=O [SEQ ID NO: 1, (D)-Cys-Met-Thz-Arg-Leu-Arg-Gly-Pen] | 240 min
2 | CSCC[C@@H]1NC(=O)[C@H](N)CSSC(C)(C)[C@@H](C(=O)O)NC(=O)CN(C)C(=O)[C@H](CCCNC(=N)N)NC(=O)[C@H](CC(C)C)NC(=O)[C@H](CCCNC(=N)N)NC(=O)[C@@H]2CSCN2C1=O [SEQ ID NO: 2, (D)-Cys-Met-Thz-Arg-Leu-Arg-Sar-Pen] | 294 min
3 | CSCC[C@@H]1NC(=O)[C@H](N)CSSC[C@@H](C(=O)O)NC(=O)CN(C)C(=O)[C@H](CCCNC(=N)N)NC(=O)[C@H](CC(C)C)NC(=O)[C@H](CCCNC(=N)N)NC(=O)[C@@H]2CCCCN2C1=O [SEQ ID NO: 3, (D)-Cys-Met-Pip-Arg-Leu-Arg-Sar-Cys] | 354 min
4 | CSCC[C@@H]1NC(=O)[C@H](N)CSSC(C)(C)[C@@H](C(=O)O)NC(=O)CNC(=O)[C@H](CCCNC(=N)N)NC(=O)[C@H](CC(C)C)NC(=O)[C@H](CCCNC(=N)N)NC(=O)[C@@H]2CCCCN2C1=O [SEQ ID NO: 4, (D)-Cys-Met-Pip-Arg-Leu-Arg-Gly-Pen] | 234 min
5 | CSCC[C@@H]1NC(=O)[C@H](N)CSSC(C)(C)[C@@H](C(=O)O)NC(=O)CN(C)C(=O)[C@H](CCCNC(=N)N)NC(=O)[C@H](CC(C)C)NC(=O)[C@H](CCCNC(=N)N)NC(=O)[C@@H]2CCCCN2C1=O [SEQ ID NO: 5, (D)-Cys-Met-Pip-Arg-Leu-Arg-Sar-Pen] | 552 min

Assay: In situ brain perfusion, cerebral transfer coefficient (Kin)
Assay type: in vivo, mouse
Conditions: in situ brain perfusion 2-5 min, perfusate flow rate 2 ml/min
Procedure: The in situ brain perfusion technique (in adult male OF1 mouse) is used to illustrate passage in the brain across the BBB.
Radioactive peptides with high specific radioactivity (RAS, up to 100 Ci/mmol) are prepared by a strategy of acylation of the N-term amine function by tritiated propionic (or propanoic) anhydride or tritiated N-propionyl-succinimide (NPS).
The techniques briefly summarized below were developed previously to study the distribution in the brain of active substances and, in particular, the role of the BBB and, more particularly, of LDLR in the penetration of these molecules in the brain. In situ brain perfusion techniques are among the most technically demanding and the most difficult to perform in the mouse. […]
This strategy of in situ brain perfusion normally carried out in the rat was adapted for mouse (Dagenais et al., 2000, J Cereb Blood Flow Metab., 20(2), 381-6) in order to broaden its application for evaluating the parameters of transport kinetics at the BBB and the blood-retinal barrier, and this also in transgenic and KO mutant mice for the receptors, enzymes or transporters of active substances. […] The duration of the fixed flow-rate perfusion is monitored. […]

Row | Structure (SMILES) | Kin (transfer coefficient)
6 | CC(C)C[C@H](NC(=O)[C@H](Cc1ccccc1)NC(=O)CNC(=O)[C@@H](C)NC(=O)[C@@H](N)Cc1ccc(O)cc1)C(=O)N[C@@H](CCCNC(=N)N)C(=O)O [Dalargine] (H-Y[dA]GFLR-OH) | ≈ 0.9 x 10^-4 ml/s/g
